Results as given in patent US20210213001A1, “METHOD OF TREATING A SLEEP BREATHING DISORDER” (Monash University, priority 2018, published 2021).

Assays:
[1] = system: anaesthetised, hyperventilated Domperidone-treated lamb; experiment: Periodic breathing induced by transient hyperventilation in the anaesthetised Domperidone-treated lamb (model of elevated loop gain); format: in vivo; conditions: for effect on average value of loop gain across the epoch / effect on epoch duration / effect on number of cycles in epochs of periodic breathing following hyperventilation / number of cycles of ventilation and apnea in the epoch of periodic breathing / duration of the epoch of periodic breathing / average value of loop gain across the epoch of periodic breathing: 5 mg/kg i.v.; for effect on average value of loop gain across the epoch / effect on epoch duration / effect on number of cycles in epochs of periodic breathing following hyperventilation: before vs after drug, Retigabine lambs 1-3, Flupirtine lamb 4; for number of cycles of ventilation and apnea in the epoch of periodic breathing / duration of the epoch of periodic breathing / average value of loop gain across the epoch of periodic breathing: single lamb; for number of cycles of ventilation and apnea in the epoch of periodic breathing / duration of the epoch of periodic breathing: about 1 hour after drug; for number of cycles of ventilation and apnea in the epoch of periodic breathing: same lamb before drug: 30 (Retigabine lamb), 24 (Flupirtine lamb); for duration of the epoch of periodic breathing: same lamb before drug: 6 minutes (Retigabine lamb), 320 seconds (Flupirtine lamb); for average value of loop gain across the epoch of periodic breathing: duty ratio method, same lamb before drug: 1.71 (Retigabine lamb), 1.51 (Flupirtine lamb)
From the text: To determine the effects of the KCNQ channel openers Retigabine and Flupirtine on loop gain and periodic breathing in the anaesthetised, hyperventilated Domperidone-treated lamb.
This animal model provides a robust preparation to test the effects of candidate drugs for the treatment of disordered breathing associated with increased peripheral chemosensitivity and elevated loop gain.
Young lambs (Merino/Border-Leicester cross, 14-18 kg) were instrumented surgically and maintained through the experimental protocol according to the method described by Edwards et al. (2008). Briefly, a non-occlusive catheter was placed in the left jugular vein for the induction of anaesthesia using a loading dose of ketamine hydrochloride (5 mg/kg) followed by alpha-chloralose (80 mg/kg as a starting bolus, then as a continuous infusion at 20 mg/kg/hr. Supplemental doses of alpha-chloralose were administered as needed to maintain adequate anaesthesia. A glucose-saline solution was infused through the same catheter to maintain fluid levels (5% glucose in 0.9% saline at 4 ml/kg/hr). A tracheal tube was inserted and connected to a dual intermittent mechanical ventilator (IMV)/high frequency oscillatory ventilator (Humming2; BMO-20H) used in the IMV mode. Use of a 4-way Hans Rudolf valve enabled the lamb to be ventilated artificially or to breathe spontaneously from a circuit through which a flow of gas was maintained at 45 L/min, or from the room air. Measurements of respiratory flow, tidal volume and end-expired gases were made on the tracheal line. Respiratory flow was measured using a Hans Rudolph (3500A) pneumotachograph that was linear up to 35 l/min, in conjunction with a Gaeltec 8T-2 differential pressure transducer connected to a carrier amplifier (Hewlett Packard 8805B) and thence to an HP-8815A electronic integrator to determine tidal volume. Non-occlusive catheters were placed in the right jugular vein and a carotid artery for the intravenous administration of drugs, the sampling of venous and arterial blood gases and the monitoring of blood pressure. Arterial blood pressure was measured using a Micron MP-15 blood pressure transducer connected to a Hewlett-Packard 8805B carrier amplifier. A rectal probe was used to monitor body temperature, which was maintained within the range of 40.0±1.0° C. using an overhead radiant heater. Arterial oxygen saturation was measured continuously using a Nellcor pulse oximeter (Model N-200E) with the probe placed in the trans-mandibular position in such a way that the optical path included the soft tissues of the jaw but excluded the tongue.
Domperidone (0.5 mg/kg in 30 ml 0.1% lactic acid), Flupirtine (as Flupirtine maleate, 5 mg/kg in 30 ml distilled water) and Retigabine (5 mg/kg in 30 ml distilled water) were each administered over a period of 5 minutes via the jugular vein catheter.
Lambs breathed room air (atmospheric) throughout the experimental protocol. Domperidone was administered at the commencement of the experimental protocol. […] Epochs of periodic breathing were induced by switching the tracheal tube to the ventilator circuit and hyperventilating the lamb with air for at least 5 minutes to reduce end tidal CO2 to a level that produced apnea when the ventilator was switched off. […] Typically, an extended epoch of periodic breathing followed the post-hyperventilation apnea. Once the ventilation parameters for achieving a post-hyperventilation apnea as described above were established for a particular animal, the baseline ventilatory response to hyperventilation was determined by performing two standardised hyperventilation procedures 10-15 minutes apart. The test drug (Flupirtine or Retigabine) was then administered and, approximately 1 hour later, another two hyperventilation procedures were performed 10-15 minutes apart.
Minute ventilation was calculated breath-by-breath using the breath duration determined from the respiratory flow trace and the tidal volume signal from the integrator. […]

young lambs = conditions: cited from earlier work

SMILES | epochs of periodic breathing on hyperventilation ([1]; Domperidone 0.5 mg/kg alone, 30 minutes or more after administration) | typical duration of epochs of periodic breathing ([1]; Domperidone 0.5 mg/kg alone, before test drug) [min] | duration of blocking effect (young lambs; 0.5 mg/kg dose to a lamb, previous research (Kressin et al. 1986)) | effect on loop gain of the respiratory control system (young lambs; young lambs, Edwards et al. (2008)) | effect on average value of loop gain across the epoch [1] | effect on epoch duration [1] | effect on number of cycles in epochs of periodic breathing following hyperventilation [1] | number of cycles of ventilation and apnea in the epoch of periodic breathing [1] [cycles] | duration of the epoch of periodic breathing [1] [s] | average value of loop gain across the epoch of periodic breathing [1]
O=c1[nH]c2ccccc2n1CCCN1CCC(n2c(=O)[nH]c3cc(Cl)ccc32)CC1 [Domperidone] | reliably elicited epochs of periodic breathing | 2 to 5 | at least three hours | increases |  |  |  |  |  | 
CCOC(=O)Nc1ccc(NCc2ccc(F)cc2)nc1N [Flupirtine] |  |  |  |  | reduced | reduced | significantly reduced | 9 | 130 | 1.16
CCOC(=O)Nc1ccc(NCc2ccc(F)cc2)cc1N [Retigabine] |  |  |  |  | reduced | reduced | significantly reduced | 6 | 115 | 1.24
